Results reported in ChEMBL document CHEMBL1201862, “PubChem BioAssay data set” (2004).
Calls of active or inactive are those of the source.

Key:
[1] = target: T1, Short transient receptor potential channel 4 (Mus musculus, UniProt Q9QUQ5); assay: SAR Analysis for the identification of selective inhibits of the transient receptor potential cation channel C4 (TRPC4): Automated Electrophysiology_2. [Related pubchem assays (depositor defined):AID2256]; format: functional
T1 sequence (Q9QUQ5 whole entry): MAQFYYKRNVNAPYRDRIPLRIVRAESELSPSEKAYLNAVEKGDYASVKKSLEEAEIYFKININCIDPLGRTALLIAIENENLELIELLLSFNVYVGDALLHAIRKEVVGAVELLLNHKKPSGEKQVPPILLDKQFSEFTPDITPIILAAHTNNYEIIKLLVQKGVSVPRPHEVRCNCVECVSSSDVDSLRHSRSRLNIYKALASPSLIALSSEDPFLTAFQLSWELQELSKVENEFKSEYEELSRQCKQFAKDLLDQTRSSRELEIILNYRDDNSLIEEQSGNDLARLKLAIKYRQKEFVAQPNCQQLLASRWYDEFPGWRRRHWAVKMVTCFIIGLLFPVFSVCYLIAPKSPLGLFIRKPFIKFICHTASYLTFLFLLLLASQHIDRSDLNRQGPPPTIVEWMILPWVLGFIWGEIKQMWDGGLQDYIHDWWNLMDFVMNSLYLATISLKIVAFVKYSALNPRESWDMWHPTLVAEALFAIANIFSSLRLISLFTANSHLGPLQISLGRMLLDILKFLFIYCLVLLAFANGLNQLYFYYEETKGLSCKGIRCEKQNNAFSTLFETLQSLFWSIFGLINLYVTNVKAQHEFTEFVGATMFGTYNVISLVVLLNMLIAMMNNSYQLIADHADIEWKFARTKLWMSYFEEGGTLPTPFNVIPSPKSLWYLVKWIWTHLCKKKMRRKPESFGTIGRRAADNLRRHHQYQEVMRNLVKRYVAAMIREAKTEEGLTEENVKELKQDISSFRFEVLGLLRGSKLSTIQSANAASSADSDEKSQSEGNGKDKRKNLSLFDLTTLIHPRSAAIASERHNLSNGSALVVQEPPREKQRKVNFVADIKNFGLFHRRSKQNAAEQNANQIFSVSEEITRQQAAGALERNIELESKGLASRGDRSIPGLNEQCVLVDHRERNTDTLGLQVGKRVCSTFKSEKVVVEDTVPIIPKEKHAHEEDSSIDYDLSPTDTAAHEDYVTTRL

[2] = target: T1, Short transient receptor potential channel 4; assay: potency of mouse TRPC4 calcium flux blockers – cell-based, HEK293 TRPC4/mu-opioid, DAMGO stimulus, Fluo-4, dose response (AID 492994); format: functional
[3] = target: Potassium voltage-gated channel subfamily KQT member 2 (Rattus norvegicus, UniProt O88943); assay: rat KCNQ2 current potentiators – automated patch clamp, KCNQ2-CHO cells, SAR follow-up (AID 493113); format: functional
[4] = target: Voltage-gated inwardly rectifying potassium channel KCNH2 (Homo sapiens, UniProt Q12809); conditions: Potency;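 note: confirmatory quantitative high-throughput screen measuring inhibition of hERG channel activity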
[5] = microbe, parasite or virus in culture; format: functional; conditions: Mycobacterium tuberculosis
[6] = target: Glucose-6-phosphate 1-dehydrogenase (Homo sapiens, UniProt P11413); assay: inhibition of Homo sapiens G6PD, dose series – biochemical, fluorescence, selectivity assay for P. falciparum G6PD inhibitor project, dose response (AID 504792); format: functional
[7] = target: Heat shock protein HSP 90-alpha (Homo sapiens, UniProt P07900); format: functional, organism-based
[8] = PAX8-dependent cell viability loss – plate reader, dry powder, dose response (AID 743049); format: functional, cell-based
[9] = DRD fibroblast viability loss – cell-based, non-viral oncogenic, luminescence, dose response (AID 1934); format: functional; conditions: Homo sapiens
[10] = OVCAR4 cell viability loss – plate reader, dry powder, SA11, cytotoxicity control for PAX8 inhibitor project, dose response (AID 743150); format: functional, cell-based; conditions: OVCAR-4
[11] = COV434 cell viability loss – plate reader, dry powder, SA7, cytotoxicity control for PAX8 inhibitor project, dose response (AID 743145); format: functional, cell-based
[12] = toxicity toward immortalized ovarian surface epithelium – cell-based, plate reader, dry powder samples, cytotoxicity control for PAX8 inhibitor project, dose response (AID 743045); format: functional
[13] = OV-90 cell viability loss – plate reader, dry powder, SA8, PAX8 inhibitor project, dose response (AID 743149); format: functional, cell-based
A-375 [14] = assay: MITF: Counter assay: A375 proliferation Measured in Cell-Based System Using Plate Reader - 2084-03_Inhibitor_Dose_DryPowder_Activity. [Related pubchem assays (depositor defined):AID488944]; format: functional; conditions: Homo sapiens
[15] = target: Nuclear receptor subfamily 0 group B member 1 (Homo sapiens, UniProt P51843); format: functional, cell-based;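 note: HEK293T cells transfected with SF-1 and DAX-1 plus StAR promoter luciferase reporter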
[16] = alpha-synuclein stem-loop luciferase translation blockers – H4 neuroglioma cells, luminescence, confirmation (AID 1988); format: functional, cell-based
[17] = IGROV1 cell killing – plate reader, dry powder samples, PAX8 inhibitor project, dose response (AID 743043); format: functional, cell-based; conditions: IGROV-1
[18] = luciferase reporter signal reduction – luminescence, H4-C neuroglioblastoma cells, dose response (AID 2458); format: functional, cell-based;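 note: H4 neuroglioblastoma cells stably carrying a luciferase reporter gene fusion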
cells [19] = format: functional, cell-based
[20] = inhibitors acting on PAX2 in cells – cell-based, plate reader, dry powder samples, selectivity assay for PAX8 inhibitor project, dose response (AID 743048); format: functional;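 note: HEK293 cells carrying a WT1 promoter luciferase reporter driven by expressed Pax2; potency is for inhibition of Pax2 driven reporter signal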
cells [21] = format: functional, cell-based; remark: listed apart in the source
[22] = luciferase reporter signal suppression in cells – H4 neuroglioma cells, luminescence, dose response (AID 1990); format: functional, cell-based
[23] = PAX5 cellular inhibition readout – cell-based, plate reader, dry powder samples, selectivity assay for PAX8 inhibitor project, dose response (AID 743047); format: functional;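 note: HEK293 cells carrying a Pax5 driven CD19 promoter luciferase reporter; potency of inhibitors that lower reporter luminescence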
[24] = alpha-synuclein stem-loop translation blockers – luminescence, H4 neuroglioblastoma cells, dose confirmation, confirmation (AID 2454); format: functional, cell-based;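 note: H4 neuroglioblastoma cells carrying an alpha-synuclein 5'UTR luciferase reporter; potency for inhibition of the luciferase signal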
[25] = COV362 cell viability loss – plate reader, dry powder, SA12, cytotoxicity control for PAX8 inhibitor project, dose response (AID 743144); format: functional, cell-based
[26] = A2780 cell killing – plate reader, dry powder samples, cytotoxicity control, dose response (AID 743046); format: functional, cell-based
[27] = HEK-293T viability loss after treatment – luminescence, T-cell screen hits, cytotoxicity control for TCR NF-kB inhibitor project, dose response (AID 489026); format: functional, cell-based;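 note: cells exposed to compound about 14 hours before the viability readout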
A-375 [28] = assay: proliferation inhibition in MITF-low A375 cells – cell-based, cherry-pick samples, set 2, counter-screen for MITF modulator project, dose response (AID 540335); format: functional; conditions: Homo sapiens
[29] = target: T2, Microphthalmia-associated transcription factor (Homo sapiens, UniProt O75030); assay: reducers of TRPM1 reporter luminescence, concentration series – cell-based, SK-MEL-5, cherry-picked, set 3, MITF inhibitor project, dose response (AID 493073); format: functional;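 note: SK-MEL-5 melanoma cells with luciferase driven by the MITF target TRPM1 promoter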
T2 sequence (O75030 whole entry): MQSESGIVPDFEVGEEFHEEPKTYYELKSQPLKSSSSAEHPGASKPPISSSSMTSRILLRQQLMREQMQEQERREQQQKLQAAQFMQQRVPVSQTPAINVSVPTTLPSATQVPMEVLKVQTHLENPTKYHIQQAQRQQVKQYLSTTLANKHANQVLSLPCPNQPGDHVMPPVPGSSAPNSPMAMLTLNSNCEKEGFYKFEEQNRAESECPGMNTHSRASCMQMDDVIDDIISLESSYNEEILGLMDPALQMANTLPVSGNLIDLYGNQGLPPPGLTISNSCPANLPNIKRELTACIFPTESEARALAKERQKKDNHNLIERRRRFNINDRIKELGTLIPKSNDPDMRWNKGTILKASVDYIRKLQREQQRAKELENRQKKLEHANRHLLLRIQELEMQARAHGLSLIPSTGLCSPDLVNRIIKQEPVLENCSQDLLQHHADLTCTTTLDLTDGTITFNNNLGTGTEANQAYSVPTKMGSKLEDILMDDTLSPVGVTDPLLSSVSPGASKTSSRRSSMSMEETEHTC

BJ [30] = assay: BJ-TERT fibroblast viability loss – cell-based, RAS-independent, luminescence, dose response (AID 1933); format: functional, Homo sapiens; conditions: Homo sapiens, BJ
[31] = OVCAR-3 cell viability loss – plate reader, dry powder samples, PAX8 inhibitor project, dose response (AID 743044); format: functional, cell-based
BJ [32] = assay: cells; format: functional, cell-based, Homo sapiens; conditions: Homo sapiens, BJ
Paired box protein Pax-8 = Paired box protein Pax-8 (Homo sapiens, UniProt Q06710); assay: PAX8 transcriptional activity inhibition in RMG-I – RMG-I cells, luciferase, cherry-pick, dose response (AID 687027); format: functional, cell-based;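 note: luciferase reporter driven by Pax8 target thyroperoxidase promoter measured by SteadyGlo luminescence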
[33] = Luminescence Cell-Based Dose Response HTS to Identify Inhibitors of 5'UTR Stem-Loop Driven Prion Protein mRNA Translation in H4 Neuroglioblastoma Cells. [Related pubchem assays: 1827 (Project Summary), 1813 (Primary HTS)]; format: functional

Chain of Glucose-6-phosphate 1-dehydrogenase (P11413 whole entry): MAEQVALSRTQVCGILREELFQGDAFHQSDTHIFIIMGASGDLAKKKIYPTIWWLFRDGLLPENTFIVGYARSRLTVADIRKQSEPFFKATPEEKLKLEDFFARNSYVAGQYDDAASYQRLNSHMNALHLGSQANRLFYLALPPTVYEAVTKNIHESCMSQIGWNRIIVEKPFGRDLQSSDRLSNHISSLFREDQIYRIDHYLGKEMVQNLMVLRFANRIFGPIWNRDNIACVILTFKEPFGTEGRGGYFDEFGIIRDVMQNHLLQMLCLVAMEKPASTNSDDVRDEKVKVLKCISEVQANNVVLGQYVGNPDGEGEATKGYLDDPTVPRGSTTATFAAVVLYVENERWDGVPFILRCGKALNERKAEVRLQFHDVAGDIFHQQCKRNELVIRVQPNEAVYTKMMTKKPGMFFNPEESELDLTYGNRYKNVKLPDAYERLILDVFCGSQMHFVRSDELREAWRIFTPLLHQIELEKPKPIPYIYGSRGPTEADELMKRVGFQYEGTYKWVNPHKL
Chain of Voltage-gated inwardly rectifying potassium channel KCNH2 (Q12809 whole entry): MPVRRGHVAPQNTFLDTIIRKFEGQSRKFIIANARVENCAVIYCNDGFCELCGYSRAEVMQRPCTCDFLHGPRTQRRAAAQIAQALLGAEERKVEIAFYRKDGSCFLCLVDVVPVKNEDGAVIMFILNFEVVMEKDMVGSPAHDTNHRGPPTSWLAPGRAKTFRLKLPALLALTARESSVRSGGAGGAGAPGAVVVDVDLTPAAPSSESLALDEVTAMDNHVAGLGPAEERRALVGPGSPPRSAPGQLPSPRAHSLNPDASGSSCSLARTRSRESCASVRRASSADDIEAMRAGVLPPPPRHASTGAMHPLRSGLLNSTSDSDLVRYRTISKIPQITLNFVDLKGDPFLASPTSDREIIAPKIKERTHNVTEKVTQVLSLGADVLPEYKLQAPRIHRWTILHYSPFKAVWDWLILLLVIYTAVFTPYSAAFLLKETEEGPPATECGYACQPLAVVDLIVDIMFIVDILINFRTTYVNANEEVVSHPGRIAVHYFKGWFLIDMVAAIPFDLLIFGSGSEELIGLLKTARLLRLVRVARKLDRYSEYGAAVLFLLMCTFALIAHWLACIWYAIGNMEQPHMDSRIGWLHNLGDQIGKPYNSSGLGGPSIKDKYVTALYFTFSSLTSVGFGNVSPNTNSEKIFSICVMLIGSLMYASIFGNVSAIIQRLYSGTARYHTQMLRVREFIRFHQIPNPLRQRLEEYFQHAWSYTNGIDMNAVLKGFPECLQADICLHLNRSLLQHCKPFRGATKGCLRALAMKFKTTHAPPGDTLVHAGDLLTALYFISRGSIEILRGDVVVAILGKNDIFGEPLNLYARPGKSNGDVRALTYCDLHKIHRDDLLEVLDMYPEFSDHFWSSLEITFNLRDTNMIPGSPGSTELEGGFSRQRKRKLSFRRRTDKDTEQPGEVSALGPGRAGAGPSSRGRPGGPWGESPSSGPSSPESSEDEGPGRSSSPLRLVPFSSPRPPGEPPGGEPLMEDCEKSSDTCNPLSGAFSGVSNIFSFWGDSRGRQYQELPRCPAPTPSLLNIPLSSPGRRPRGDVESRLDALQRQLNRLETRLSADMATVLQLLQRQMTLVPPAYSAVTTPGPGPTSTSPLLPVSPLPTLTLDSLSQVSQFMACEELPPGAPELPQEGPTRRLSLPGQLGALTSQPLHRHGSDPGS
Chain of Nuclear receptor subfamily 0 group B member 1 (P51843 whole entry): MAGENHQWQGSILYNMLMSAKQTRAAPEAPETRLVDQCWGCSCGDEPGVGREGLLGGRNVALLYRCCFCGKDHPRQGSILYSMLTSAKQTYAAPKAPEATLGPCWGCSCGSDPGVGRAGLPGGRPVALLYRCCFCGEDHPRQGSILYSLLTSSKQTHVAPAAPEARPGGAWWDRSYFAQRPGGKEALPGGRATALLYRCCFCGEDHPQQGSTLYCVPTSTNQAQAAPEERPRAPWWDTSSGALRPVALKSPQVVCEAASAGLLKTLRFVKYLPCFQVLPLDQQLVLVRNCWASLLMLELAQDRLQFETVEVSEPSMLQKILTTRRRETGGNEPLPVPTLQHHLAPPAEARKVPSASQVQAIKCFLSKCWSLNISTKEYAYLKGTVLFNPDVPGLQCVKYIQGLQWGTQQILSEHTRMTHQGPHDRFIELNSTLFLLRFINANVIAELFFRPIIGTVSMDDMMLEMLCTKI
Chain of Potassium voltage-gated channel subfamily KQT member 2 (O88943 whole entry): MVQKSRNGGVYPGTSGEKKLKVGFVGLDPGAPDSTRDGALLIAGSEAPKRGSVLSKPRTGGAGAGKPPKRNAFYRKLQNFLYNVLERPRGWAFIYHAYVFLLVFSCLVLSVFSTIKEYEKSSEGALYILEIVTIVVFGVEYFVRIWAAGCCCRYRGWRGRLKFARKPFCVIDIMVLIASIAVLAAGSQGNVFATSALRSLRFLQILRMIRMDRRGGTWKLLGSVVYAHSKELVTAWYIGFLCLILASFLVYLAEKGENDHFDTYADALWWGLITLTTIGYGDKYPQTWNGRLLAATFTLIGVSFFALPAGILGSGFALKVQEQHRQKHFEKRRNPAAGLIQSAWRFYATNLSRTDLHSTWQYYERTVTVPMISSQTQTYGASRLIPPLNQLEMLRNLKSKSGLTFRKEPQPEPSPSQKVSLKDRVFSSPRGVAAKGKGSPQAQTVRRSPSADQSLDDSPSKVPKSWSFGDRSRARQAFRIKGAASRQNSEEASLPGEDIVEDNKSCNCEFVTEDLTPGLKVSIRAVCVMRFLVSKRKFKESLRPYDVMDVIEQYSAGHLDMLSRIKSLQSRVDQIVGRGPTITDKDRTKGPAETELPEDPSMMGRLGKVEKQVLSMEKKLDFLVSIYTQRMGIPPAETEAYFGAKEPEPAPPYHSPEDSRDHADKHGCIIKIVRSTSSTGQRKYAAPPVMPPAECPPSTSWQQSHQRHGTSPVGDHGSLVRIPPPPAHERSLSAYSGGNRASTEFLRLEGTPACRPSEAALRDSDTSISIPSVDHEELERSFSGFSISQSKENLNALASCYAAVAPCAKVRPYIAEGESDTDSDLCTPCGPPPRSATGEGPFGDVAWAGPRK
Chain of Paired box protein Pax-8 (Q06710 whole entry): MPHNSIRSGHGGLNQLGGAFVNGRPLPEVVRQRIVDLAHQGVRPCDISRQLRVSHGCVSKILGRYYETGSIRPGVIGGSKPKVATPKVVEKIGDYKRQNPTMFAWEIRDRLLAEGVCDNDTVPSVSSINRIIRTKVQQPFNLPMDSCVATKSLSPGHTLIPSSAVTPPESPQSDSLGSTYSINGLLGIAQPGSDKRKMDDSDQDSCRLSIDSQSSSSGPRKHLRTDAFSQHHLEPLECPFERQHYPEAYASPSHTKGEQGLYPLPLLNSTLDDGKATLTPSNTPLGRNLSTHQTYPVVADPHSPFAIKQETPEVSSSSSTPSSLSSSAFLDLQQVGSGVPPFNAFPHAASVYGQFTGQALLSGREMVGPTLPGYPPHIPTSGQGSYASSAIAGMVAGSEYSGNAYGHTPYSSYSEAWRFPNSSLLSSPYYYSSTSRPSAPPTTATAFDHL

SMILES: CCc1ccc2nc(N3CCCCCC3)cc(C)c2c1
- IC50 [1]: 3300 nM (active)
- IC50 [2]: 7370 nM (active)

SMILES: Nc1cccc(NC(=O)C2CC3CCC2C3)n1 (centres undefined)
- EC50 [3]: 1810 nM (active)

SMILES: CCCCCCCCn1sccc1=O
- AC50 [4]: 44700 nM (inconclusive)
- CC50 [5]: 11300 nM (active)
- IC50 [6]: 59300 nM (inactive)
- AC50 [7]: 649 nM (active)

SMILES: COc1cccc(N2CCN(C(=O)c3ccc(C[S+]([O-])c4ccccc4Cl)o3)CC2)c1 (centres undefined)
- AC50 [8]: 22000 nM (active)
- EC50 [9]: 225 nM (active)
- AC50 [10]: 646 nM (active)
- AC50 [11]: 684 nM (active)
- AC50 [12]: 537 nM (active)
- AC50 [13]: 2030 nM (active)
- AC50 (A-375 [14]): > 35000 nM (active)
- IC50 [15]: > 67600 nM (inactive)
- EC50 [16]: < 100 nM (active)
- AC50 [17]: 72000 nM (active)
- EC50 [18]: 202 nM (active)
- IC50 (cells [19]): > 67600 nM (inactive)
- AC50 [20]: 37500 nM (active)
- EC50 (cells [21]): 345 nM (active)
- EC50 [22]: < 100 nM (active)
- AC50 [23]: 3980 nM (active)
- EC50 [24]: 354 nM (active)
- AC50 [25]: 2030 nM (active)
- AC50 [26]: 5000 nM (active)
- IC50 [27]: 58000 nM (inactive)
- AC50 (A-375 [28]): > 35000 nM (active)
- AC50 [29]: 894 nM (active)
- EC50 (BJ [30]): 214 nM (active)
- AC50 [31]: 478 nM (active)
- EC50 (BJ [32]): 37700 nM (inconclusive)
- AC50 (Paired box protein Pax-8): 921 nM (active)
- EC50 [33]: < 100 nM (active)
